{
  "source": "paper PMC5467694",
  "about": "(European journal of pharmacology, 2009)",
  "key": {"[1]": {"biological_target": "recombinant α1β2γ2 GABAA receptor (Homo sapiens, UniProt P14867+P18507+P47870)", "sequence (P14867 28-456)": "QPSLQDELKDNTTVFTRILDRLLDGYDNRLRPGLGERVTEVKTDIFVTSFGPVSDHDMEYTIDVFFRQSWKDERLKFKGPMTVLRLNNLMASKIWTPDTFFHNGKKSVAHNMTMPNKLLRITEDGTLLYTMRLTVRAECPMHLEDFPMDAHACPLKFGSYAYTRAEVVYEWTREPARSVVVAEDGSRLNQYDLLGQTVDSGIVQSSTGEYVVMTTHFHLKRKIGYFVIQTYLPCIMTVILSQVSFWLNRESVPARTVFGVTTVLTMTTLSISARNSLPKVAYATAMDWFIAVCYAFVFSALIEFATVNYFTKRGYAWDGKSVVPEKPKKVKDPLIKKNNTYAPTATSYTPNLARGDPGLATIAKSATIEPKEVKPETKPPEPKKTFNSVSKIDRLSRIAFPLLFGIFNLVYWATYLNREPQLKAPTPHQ", "sequence (P47870 25-512 limits assumed)": "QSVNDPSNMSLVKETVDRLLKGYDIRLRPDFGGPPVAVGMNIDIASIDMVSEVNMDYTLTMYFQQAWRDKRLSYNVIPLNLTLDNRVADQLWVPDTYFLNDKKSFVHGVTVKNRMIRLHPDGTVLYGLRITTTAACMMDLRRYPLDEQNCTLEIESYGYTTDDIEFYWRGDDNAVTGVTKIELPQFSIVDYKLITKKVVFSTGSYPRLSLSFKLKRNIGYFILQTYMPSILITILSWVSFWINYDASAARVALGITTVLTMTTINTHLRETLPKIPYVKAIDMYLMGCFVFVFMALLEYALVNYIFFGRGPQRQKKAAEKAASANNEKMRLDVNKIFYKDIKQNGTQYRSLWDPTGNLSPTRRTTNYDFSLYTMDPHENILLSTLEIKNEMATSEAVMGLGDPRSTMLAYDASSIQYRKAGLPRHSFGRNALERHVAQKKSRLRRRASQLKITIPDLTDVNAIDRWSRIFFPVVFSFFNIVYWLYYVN", "sequence (P18507 40-475)": "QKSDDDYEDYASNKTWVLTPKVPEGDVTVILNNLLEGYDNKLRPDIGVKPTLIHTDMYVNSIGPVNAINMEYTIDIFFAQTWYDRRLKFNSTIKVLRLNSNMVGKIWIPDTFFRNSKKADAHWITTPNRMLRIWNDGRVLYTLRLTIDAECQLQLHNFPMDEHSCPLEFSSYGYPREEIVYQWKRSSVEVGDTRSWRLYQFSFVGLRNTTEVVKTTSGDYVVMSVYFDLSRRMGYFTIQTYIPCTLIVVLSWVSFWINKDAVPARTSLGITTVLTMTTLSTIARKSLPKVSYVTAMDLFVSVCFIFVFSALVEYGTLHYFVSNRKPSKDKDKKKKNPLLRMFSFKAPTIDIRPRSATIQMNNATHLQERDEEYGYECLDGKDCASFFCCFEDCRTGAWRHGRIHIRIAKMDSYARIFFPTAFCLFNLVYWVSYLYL", "assay": "Electrophysiological GABAA patch-clamp assay", "type": "cell-based"}, "[2]": {"biological_target": "recombinant human Neu2 (Homo sapiens, UniProt Q9Y3R4)", "sequence (Q9Y3R4 whole entry)": "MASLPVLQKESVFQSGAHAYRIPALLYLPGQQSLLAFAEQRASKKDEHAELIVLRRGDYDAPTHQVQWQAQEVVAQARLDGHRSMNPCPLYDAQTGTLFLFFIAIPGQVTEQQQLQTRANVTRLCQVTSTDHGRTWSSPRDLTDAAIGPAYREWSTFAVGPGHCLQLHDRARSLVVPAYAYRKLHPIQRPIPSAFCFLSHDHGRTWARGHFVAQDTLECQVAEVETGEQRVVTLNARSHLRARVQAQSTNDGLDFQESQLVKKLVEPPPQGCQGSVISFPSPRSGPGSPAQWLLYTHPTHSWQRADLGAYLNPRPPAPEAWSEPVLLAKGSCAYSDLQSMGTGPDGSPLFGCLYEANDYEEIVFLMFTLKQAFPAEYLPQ", "assay": "NA inhibition assay, recombinant human Neu2", "type": "biochemical"}, "[3]": {"test_system": "native non-human primate brain NA activity (microsomal and membrane fractions)", "assay": "NA inhibition assay, non-human primate brain extracts", "type": "biochemical, Macaca fascicularis"}, "[4]": {"biological_target": "T1, recombinant human Neu4 (Homo sapiens, UniProt Q8WWR8)", "T1 sequence (Q8WWR8 1-484)": "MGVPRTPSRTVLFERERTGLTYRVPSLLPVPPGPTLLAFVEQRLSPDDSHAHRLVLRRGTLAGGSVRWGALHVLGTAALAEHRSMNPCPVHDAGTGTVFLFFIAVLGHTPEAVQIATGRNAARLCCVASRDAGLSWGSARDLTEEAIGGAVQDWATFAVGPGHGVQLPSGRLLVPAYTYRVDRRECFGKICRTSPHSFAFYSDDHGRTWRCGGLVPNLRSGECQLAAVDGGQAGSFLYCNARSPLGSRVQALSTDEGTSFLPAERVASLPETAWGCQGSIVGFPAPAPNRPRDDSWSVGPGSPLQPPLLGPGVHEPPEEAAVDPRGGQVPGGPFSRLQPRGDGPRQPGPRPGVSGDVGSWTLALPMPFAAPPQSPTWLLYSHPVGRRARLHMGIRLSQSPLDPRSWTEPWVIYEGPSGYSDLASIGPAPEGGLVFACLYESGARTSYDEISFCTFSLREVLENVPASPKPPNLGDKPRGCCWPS", "assay": "NA inhibition assay, recombinant human Neu4", "type": "biochemical"}, "[5]": {"assay": "Steady-state exposure in adults, standard regimen", "type": "in vivo, human", "details": "75 mg twice daily for 5 days"}, "[6]": {"test_system": "NA activity in rat brain tissue", "assay": "NA inhibition assay, rat brain-derived tissue", "type": "biochemical", "details": "concentrations up to 1 mM"}, "[7]": {"test_system": "recombinant human NAs Neu1–4", "assay": "NA inhibition assay, all 4 recombinant human NAs", "type": "biochemical", "details": "for partial inhibition of all 4 human NAs: concentrations higher than 1 mM; for inhibition of all 4 human NAs: up to a concentration of 1 mM"}, "[8]": {"test_system": "Gαi- and Gαs-linked G protein-coupled receptors in whole rat brain membranes", "details": "ref Satoh et al. (2007); cited from earlier work"}, "[9]": {"biological_target": "recombinant influenza virus NA (Influenza A virus, UniProt Q30NP8)", "sequence (Q30NP8 whole entry, looked up)": "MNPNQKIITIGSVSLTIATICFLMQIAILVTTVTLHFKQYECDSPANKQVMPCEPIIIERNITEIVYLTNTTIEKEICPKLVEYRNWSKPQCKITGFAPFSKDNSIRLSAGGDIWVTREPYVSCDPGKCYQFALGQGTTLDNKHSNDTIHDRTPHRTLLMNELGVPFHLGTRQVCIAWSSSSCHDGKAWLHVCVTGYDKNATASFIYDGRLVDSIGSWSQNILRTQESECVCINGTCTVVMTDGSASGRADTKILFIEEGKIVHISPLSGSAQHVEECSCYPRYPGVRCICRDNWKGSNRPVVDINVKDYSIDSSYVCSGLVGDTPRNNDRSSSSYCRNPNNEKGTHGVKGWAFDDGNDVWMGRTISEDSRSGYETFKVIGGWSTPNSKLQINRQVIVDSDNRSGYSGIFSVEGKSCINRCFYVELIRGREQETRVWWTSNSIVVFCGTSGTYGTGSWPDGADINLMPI", "assay": "NA inhibition assay, recombinant influenza virus NA", "type": "biochemical, influenza strain A/Beijing/39/1975 H3N2"}, "[10]": {"biological_target": "recombinant human Neu1 (Homo sapiens, UniProt Q99519)", "assay": "NA inhibition assay, recombinant human Neu1", "type": "biochemical"}, "[11]": {"test_system": "panel of 155 molecular targets unrelated to NAs", "assay": "Selectivity panel of 155 molecular targets unrelated to NAs", "details": "for pharmacological activity on panel targets: 3 and 30 μM, 50% cut-off for relevance; for low levels of activity, inhibition/stimulation, on eleven targets: at either 3 μM or 30 μM"}, "[12]": {"biological_target": "T2, recombinant human Neu3 (Homo sapiens, UniProt Q9UQ49)", "T2 sequence (Q9UQ49 1-428)": "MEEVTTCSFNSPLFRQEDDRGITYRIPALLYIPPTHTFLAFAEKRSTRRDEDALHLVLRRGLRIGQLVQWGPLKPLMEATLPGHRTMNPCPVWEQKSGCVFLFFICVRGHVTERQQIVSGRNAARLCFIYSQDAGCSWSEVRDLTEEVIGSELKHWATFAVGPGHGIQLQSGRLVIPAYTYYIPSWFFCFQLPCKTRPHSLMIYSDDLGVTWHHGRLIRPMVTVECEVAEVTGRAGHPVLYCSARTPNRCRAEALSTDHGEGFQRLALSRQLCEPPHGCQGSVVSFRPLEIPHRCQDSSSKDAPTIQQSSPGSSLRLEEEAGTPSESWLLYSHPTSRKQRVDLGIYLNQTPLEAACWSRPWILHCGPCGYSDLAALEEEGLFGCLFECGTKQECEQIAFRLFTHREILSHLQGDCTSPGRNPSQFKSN", "assay": "NA inhibition assay, recombinant human Neu3", "type": "biochemical"}, "[13]": {"test_system": "recombinant human NAs", "details": "concentrations up to 1 mM; ref Hata et al. (2008); cited from earlier work"}, "[14]": {"test_system": "human Neu4", "details": "read-out: IC50 on human Neu4; recombinant; ref Hata et al. (2008); cited from earlier work"}, "[15]": {"test_system": "human Neu1", "details": "read-out: IC50 on human Neu1; recombinant; ref Hata et al. (2008); cited from earlier work"}, "[16]": {"test_system": "human Neu2", "details": "read-out: IC50 on human Neu2; recombinant; ref Hata et al. (2008); cited from earlier work"}, "[17]": {"test_system": "NA activity of different viral strains", "details": "read-out: IC50 on NA activity of different viral strains; ref Hata et al. (2008); cited from earlier work"}, "[18]": {"test_system": "human Neu3", "details": "read-out: IC50 on human Neu3; recombinant; ref Hata et al. (2008); cited from earlier work"}, "[19]": {"details": "concentrations higher than 5 mM"}, "[20]": {"details": "concentrations higher than 10 mM"}, "[21]": {"details": "microsomal and membrane fractions, concentrations up to 10 mM"}, "[22]": {"details": "concentrations higher than 2 mM"}, "[23]": {"details": "concentrations higher than 1 mM"}},
  "data": [
    {"smiles": "CCOC(=O)C1=C[C@@H](OC(CC)CC)[C@H](NC(C)=O)[C@@H](N)C1", "note": "[OP, oseltamivir phosphate]", "values": [
      {"measurement": "activity on GABAA in patch-clamp, on GABA and pentobarbital", "setting": "[1]", "value": "lack of any significant, inhibitory, excitatory or modulatory activity"},
      {"measurement": "inhibitory activity on Neu2", "setting": "[2]; [19]", "value": "partial inhibition"},
      {"measurement": "inhibitory activity on Neu2", "setting": "[2]; concentrations up to 5 mM", "value": "no inhibition"},
      {"measurement": "inhibition of non-human primate brain NA activity", "setting": "[3]; [20]", "value": "partial inhibition"},
      {"measurement": "inhibition of non-human primate brain NA activity", "setting": "[3]; [21]", "value": "no inhibition"},
      {"measurement": "inhibitory activity on Neu4", "setting": "[4]; [22]", "value": "trend for an inhibitory activity"},
      {"measurement": "inhibitory activity on Neu4", "setting": "[4]; concentrations up to 2 mM", "value": "no inhibition"},
      {"measurement": "extrapolated brain Cmax", "setting": "[5]", "value": "~ 6.7 nM"},
      {"measurement": "inhibition of NA activity in rat brain tissue", "setting": "[6]", "value": "no inhibition"},
      {"measurement": "partial inhibition of all 4 human NAs", "setting": "[7]", "value": "20–40%"},
      {"measurement": "inhibition of all 4 human NAs", "setting": "[7]", "value": "no inhibition"},
      {"measurement": "effect on [35S]-GTP-γS binding", "setting": "[8]", "value": "no effect"},
      {"measurement": "IC50", "setting": "[9]", "value": "~0.01", "unit": "mM"},
      {"measurement": "inhibitory activity on Neu1", "setting": "[10]; [23]", "value": "partial inhibition"},
      {"measurement": "inhibitory activity on Neu1", "setting": "[10]; concentrations up to 1 mM", "value": "no inhibitory activity"},
      {"measurement": "pharmacological activity on panel targets", "setting": "[11]", "value": "no relevant pharmacological activity"},
      {"measurement": "low levels of activity, inhibition/stimulation, on eleven targets", "setting": "[11]", "value": "20–41%"},
      {"measurement": "inhibitory activity on Neu3", "setting": "[12]; [19]", "value": "partial inhibition"},
      {"measurement": "inhibitory activity on Neu3", "setting": "[12]; concentrations up to 5 mM", "value": "no inhibition"}
    ]},
    {"smiles": "CCC(CC)O[C@@H]1C=C(C(=O)O)C[C@H](N)[C@H]1NC(C)=O", "note": "[OC, oseltamivir carboxylate]", "values": [
      {"measurement": "activity on GABAA in patch-clamp, on GABA and pentobarbital", "setting": "[1]", "value": "lack of any significant, inhibitory, excitatory or modulatory activity"},
      {"measurement": "inhibitory activity on Neu2", "setting": "[2]; [19]", "value": "partial inhibition"},
      {"measurement": "inhibitory activity on Neu2", "setting": "[2]; concentrations up to 5 mM", "value": "no inhibition"},
      {"measurement": "inhibition of non-human primate brain NA activity", "setting": "[3]; [20]", "value": "partial inhibition"},
      {"measurement": "inhibition of non-human primate brain NA activity", "setting": "[3]; [21]", "value": "no inhibition"},
      {"measurement": "inhibitory activity on Neu4", "setting": "[4]; [22]", "value": "trend for an inhibitory activity"},
      {"measurement": "inhibitory activity on Neu4", "setting": "[4]; concentrations up to 2 mM", "value": "no inhibition"},
      {"measurement": "extrapolated brain Cmax", "setting": "[5]", "value": "~ 77 nM"},
      {"measurement": "inhibitory activity on any of the human NAs", "setting": "[13]", "value": "no or negligible inhibitory activity"},
      {"measurement": "inhibition of NA activity in rat brain tissue", "setting": "[6]", "value": "no inhibition"},
      {"measurement": "partial inhibition of all 4 human NAs", "setting": "[7]", "value": "20–40%"},
      {"measurement": "inhibition of all 4 human NAs", "setting": "[7]", "value": "no inhibition"},
      {"measurement": "IC50", "setting": "[14]", "value": "> 10", "unit": "mM"},
      {"measurement": "IC50", "setting": "[15]", "value": "> 10", "unit": "mM"},
      {"measurement": "effect on [35S]-GTP-γS binding", "setting": "[8]", "value": "no effect"},
      {"measurement": "IC50", "setting": "[16]", "value": "> 6", "unit": "mM"},
      {"measurement": "IC50", "setting": "[17]", "value": "1.6 to 7.1", "unit": "nM"},
      {"measurement": "inhibitory activity on Neu1", "setting": "[10]; [23]", "value": "partial inhibition"},
      {"measurement": "inhibitory activity on Neu1", "setting": "[10]; concentrations up to 1 mM", "value": "no inhibitory activity"},
      {"measurement": "IC50", "setting": "[18]", "value": "> 10", "unit": "mM"},
      {"measurement": "pharmacological activity on panel targets", "setting": "[11]", "value": "no relevant pharmacological activity"},
      {"measurement": "low levels of activity, inhibition/stimulation, on eleven targets", "setting": "[11]", "value": "20–27%"},
      {"measurement": "inhibitory activity on Neu3", "setting": "[12]; [19]", "value": "partial inhibition"},
      {"measurement": "inhibitory activity on Neu3", "setting": "[12]; concentrations up to 5 mM", "value": "no inhibition"}
    ]}
  ]
}
